The values below are quoted from earlier work in patent US20170239312A1, “WEIGHT MANAGEMENT SYSTEMS AND RELATED METHODS” (priority 2013, published 2017).

The conditions of series [1]: caffeine alone.
For series [2] the following is noted: fed capsaicin versus saline (control group).
The test system of series [3] is 3T3-L1 pre-adipocytes. The note with it: dose- and time-dependent.
The conditions of series [4]: obese rats, 10 mg/kg-body weight.
For series [5] the following is noted: 50-200 mg/day.
For series [6] the following is noted: mice, high fat diet, 10 weeks.

Consider `Cn1c(=O)c2c(ncn2C)n(C)c1=O` [Caffeine], for which the “Effect on thermogenesis or fat oxidation” value in series [1] is listed as “no effect”. In the case of `COc1cc(CNC(=O)CCCC/C=C/C(C)C)ccc1O` [capsaicin], the “Decrease in body weight” value in series [2] is listed as 8%. With `O=c1c(O)c(-c2ccc(O)c(O)c2)oc2cc(O)cc(O)c12` [quercetin], the “Apoptosis (cell suicide)” value in series [3] was “induced apoptosis”. For the same compound, the Body weight gain entry in series [4] is reported as “reduced body weight gain”. Consider `CCNC(=O)CC[C@H](N)C(=O)O` [theanine], for which the “Time to sense of relaxation” value in series [5] was 30 to 40 min.

For the compound fucoxanthin, in series [6], the “Body weight and adipose tissue” value is “significant decrease in body weight and adipose tissue”.
